Measurements reported in article PMC11604428, “UPLC-ESI/MS^n metabolic profiling of Cedrela odorata L. and Toona ciliata M. Roem and in vitro investigation of their anti-diabetic activity supported with molecular docking studies” (Frontiers in Chemistry, 2024).

Legend:
C57BL/KsJ-db/db mice = tested on: C57BL/KsJ-db/db mice; parameters: method as in Jung et al., 2006; conditions: ref Jung et al., 2006; cited from earlier work
α-amylase [1] = tested on: α-amylase; parameters: method as in Shen et al., 2023; conditions: ref Shen et al., 2023; cited from earlier work
α-glucosidase = α-glucosidase (Saccharomyces cerevisiae, UniProt P53341); parameters: method as in Shen et al., 2023; conditions: ref Shen et al., 2023; cited from earlier work
[2] = tested on: streptozotocin-induced diabetic mice; parameters: method as in Lee et al., 2010; Jang et al., 2009; Jang et al., 2010; conditions: streptozotocin-nicotinamide-induced, streptozotocin + high-fat diet and streptozotocin-induced diabetic mice, ref Lee et al., 2010, Jang et al., 2009; cited from earlier work
α-amylase [3] = assay: α-Amylase inhibition assay; type: biochemical; conditions: mean ± SD, triplicate
Experimental: The α-amylase inhibitory activities of the tested Cedrela extracts were determined according to the standard published procedure with minor amendments ([Kazeem et al., 2013]). The enzyme solution was prepared by dissolving α-amylase in 20 mM phosphate buffer (pH = 6.9) at a concentration of 0.50 mg/mL. Then, 1 mL of different concentrations of the tested extract (0.01–100 μg/mL) was mixed with 1 mL of enzyme solution and allowed to sit at room temperature for 10 min. After incubation, 1 mL of 0.50% starch solution was included to the mixture and further incubated at room temperature for 10 min. The reaction was then ended by addition of 3,5-dinitrosalicylic acid (2 mL) and then heating the reaction mixture in a boiling water bath for 5 min. After cooling, the absorbance of the mixture was colorimetrically determined at 565 nm. Pioglitazone was used as a standard drug.
The assays were performed in triplicates, and the obtained values are stated as mean ± SD. For the in vitro investigation of α-amylase and α-glucosidase inhibitory properties, the IC50 was obtained from the graph plots of the dose–response curves at each oil concentration via Graph Pad Prism® software (San Diego, CA, United States).

Sequence of α-glucosidase (P53341 whole entry): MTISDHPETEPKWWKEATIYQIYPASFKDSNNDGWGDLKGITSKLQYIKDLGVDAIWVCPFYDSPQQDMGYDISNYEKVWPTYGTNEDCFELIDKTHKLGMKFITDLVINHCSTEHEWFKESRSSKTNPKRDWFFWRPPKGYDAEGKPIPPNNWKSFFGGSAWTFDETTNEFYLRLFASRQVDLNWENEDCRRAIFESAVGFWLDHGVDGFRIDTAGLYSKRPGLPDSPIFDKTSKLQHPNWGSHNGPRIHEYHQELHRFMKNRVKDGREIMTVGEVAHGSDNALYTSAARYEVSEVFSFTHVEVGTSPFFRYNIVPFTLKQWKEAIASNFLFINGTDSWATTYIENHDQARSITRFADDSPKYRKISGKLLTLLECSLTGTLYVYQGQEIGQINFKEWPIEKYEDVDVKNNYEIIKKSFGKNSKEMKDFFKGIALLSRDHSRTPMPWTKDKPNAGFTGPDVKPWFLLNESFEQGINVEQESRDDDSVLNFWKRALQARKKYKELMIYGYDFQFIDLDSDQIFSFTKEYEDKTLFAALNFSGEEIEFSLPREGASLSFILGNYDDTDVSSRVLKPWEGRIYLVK

In the case of `O=C(O)/C=C/c1ccc(O)c(O)c1` [Caffeic acid], the anti-hyperglycemic effect (C57BL/KsJ-db/db mice) is listed as “anti-hyperglycemic properties”.

In the case of `O=c1c(O)c(-c2ccc(O)c(O)c2)oc2cc(O)cc(O)c12` [quercetin], the “inhibition of α-amylase activity” value (α-amylase [1]) is given as “markedly inhibited” and the “inhibition of α-glucosidase activity” value (α-glucosidase) is given as “markedly inhibited”.

For `C[C@H]1[C@H](C)CC[C@]2(C(=O)O)CC[C@]3(C)C(=CC[C@@H]4[C@@]5(C)CC[C@H](O)C(C)(C)[C@@H]5CC[C@]43C)[C@H]12` [Ursolic acid], the “effect on blood glucose levels” value [2] is given as “positive effect on reducing blood glucose levels”.

For `CCc1ccc(CCOc2ccc(CC3SC(=O)NC3=O)cc2)nc1` (stereo not shown) [Pioglitazone], the “α-Amylase inhibition (%)” value (α-amylase [3]; concentration 0.01 µg/mL) was 12.50 ± 2.05%, the “α-Amylase inhibition (%)” value (α-amylase [3]; concentration 0.10 µg/mL) was 27.70 ± 1.28% and the “α-Amylase inhibition (%)” value (α-amylase [3]; concentration 1.00 µg/mL) was 45.40 ± 2.45%. The “α-Amylase inhibition (%)” value (α-amylase [3]; concentration 10.00 µg/mL) was 80.60 ± 0.23%, the “α-Amylase inhibition (%)” value (α-amylase [3]; concentration 100.00 µg/mL) was 91.70 ± 1.05% and the “α-Amylase inhibition IC50” value (α-amylase [3]) was 2.17 ± 0.23 µg/mL.
